Results from patent US8575091B1, “Amylin analogues and pharmaceutical compositions thereof” (Novo Nordisk A/S, priority 2012, dated 2013).
Numbered stars: 1 amine (or outer) side, 2 acyl side, 3 side chain; on linkers, the order of the positions; unused ones are H or OH. Bridge positions count the residues as written; N and C are the ends. Side chains are listed from the residue outwards. Peptide text beside a SMILES is read from it. * marks the point of attachment. C20 diacid = O=C(O)CCCCCCCCCCCCCCCCCCC(=O)*; γGlu = O=C(O)[C@H](CCC(=O)[*:2])N[*:1]; AEEA = NCCOCCOCC(=O)O

Molecular target: T1, human amylin receptor (amylin 3(a) receptor: human calcitonin receptor + RAMP-3) (Homo sapiens, UniProt O60896+P30988)
T1 construct: expressed in transfected cells
T1 sequence (P30988 25-474): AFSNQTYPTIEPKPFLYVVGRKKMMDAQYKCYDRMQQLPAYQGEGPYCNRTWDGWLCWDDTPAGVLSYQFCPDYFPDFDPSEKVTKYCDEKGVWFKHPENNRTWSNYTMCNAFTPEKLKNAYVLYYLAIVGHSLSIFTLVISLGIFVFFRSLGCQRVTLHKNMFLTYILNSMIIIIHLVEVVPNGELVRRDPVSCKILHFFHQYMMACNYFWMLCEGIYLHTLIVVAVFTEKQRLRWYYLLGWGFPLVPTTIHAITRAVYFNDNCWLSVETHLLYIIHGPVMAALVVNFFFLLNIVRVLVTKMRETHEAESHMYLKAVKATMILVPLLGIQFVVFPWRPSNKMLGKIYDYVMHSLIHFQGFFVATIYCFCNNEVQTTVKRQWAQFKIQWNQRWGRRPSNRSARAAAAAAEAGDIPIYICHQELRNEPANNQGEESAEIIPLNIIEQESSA
T1 sequence (O60896 24-148 partner): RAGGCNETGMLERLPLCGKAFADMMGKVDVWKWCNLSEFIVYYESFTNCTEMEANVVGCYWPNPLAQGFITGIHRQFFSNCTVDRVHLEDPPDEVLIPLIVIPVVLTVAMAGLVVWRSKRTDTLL
Assay: Assay (II)a functional assay, human amylin receptor (CRE luciferase, BHK cells)
Type: cell-based

[1] = Table 6, human functional selectivity (hCTR EC50 / hAmylin-R EC50)
[2] = Table 6a, human functional selectivity (hCTR EC50 / hAmylin-R EC50), at least 5
[3] = Table 6j, hCTR funct. EC50 / hAmylin-R funct. EC50
[4] = Table 6k, hCTR funct. EC50 / hAmylin-R funct. EC50

Compound: CC[C@H](C)[C@H](NC(=O)[C@H](C)NC(=O)CNC(=O)[C@H](Cc1ccccc1)NC(=O)[C@H](CC(N)=O)NC(=O)[C@@H]1CCCN1C(=O)[C@H](CO)NC(=O)[C@H](CO)NC(=O)[C@H](Cc1c[nH]cn1)NC(=O)[C@H](CCCNC(=N)N)NC(=O)[C@H](CC(C)C)NC(=O)[C@H](Cc1ccccc1)NC(=O)[C@H](CC(N)=O)NC(=O)[C@H](C)NC(=O)[C@H](CC(C)C)NC(=O)[C@H](CCCNC(=N)N)NC(=O)[C@H](CCC(N)=O)NC(=O)[C@@H](NC(=O)[C@H](C)NC(=O)[C@@H]1CSSC[C@H](NC(=O)[C@@H](N)CCCCNC(=O)CC[C@H](NC(=O)CCCCCCCCCCCCCCCCCCC(=O)O)C(=O)O)C(=O)N[C@@H](CC(N)=O)C(=O)N[C@@H]([C@@H](C)O)C(=O)N[C@@H](C)C(=O)N[C@@H]([C@@H](C)O)C(=O)N1)[C@@H](C)O)C(=O)N1CCC[C@H]1C(=O)N[C@@H](CO)C(=O)N[C@@H](CO)C(=O)N[C@H](C(=O)N[C@@H](CC(N)=O)C(=O)N[C@H](C(=O)NCC(=O)N[C@@H](CO)C(=O)N[C@@H](CC(N)=O)C(=O)N[C@H](C(=O)N[C@@H](Cc1ccc(O)cc1)C(N)=O)[C@@H](C)O)C(C)C)[C@@H](C)O [Example 48]
- Ratio hCT/hAmylin funct. [1]: 17.0
- Ratio hCT/hAmylin funct. [2]: 17.0
- Ratio hCT/hAmylin funct. [3]: 17.0
- Ratio hCT/hAmylin funct. [4]: 17.0

Compound: CC[C@H](C)[C@H](NC(=O)[C@H](C)NC(=O)CNC(=O)[C@H](Cc1ccccc1)NC(=O)[C@H](CC(N)=O)NC(=O)[C@@H]1CCCN1C(=O)[C@H](CO)NC(=O)[C@H](CO)NC(=O)[C@H](Cc1c[nH]cn1)NC(=O)[C@H](CCCNC(=N)N)NC(=O)[C@H](CC(C)C)NC(=O)[C@H](Cc1ccccc1)NC(=O)[C@H](CC(N)=O)NC(=O)[C@H](C)NC(=O)[C@H](CC(C)C)NC(=O)[C@H](CCCNC(=N)N)NC(=O)[C@H](CCC(N)=O)NC(=O)[C@@H](NC(=O)[C@H](C)NC(=O)[C@@H]1CSSC[C@H](NC(=O)[C@@H](N)CCCCNC(=O)COCCOCCNC(=O)CC[C@H](NC(=O)CCCCCCCCCCCCCCCCCCC(=O)O)C(=O)O)C(=O)N[C@@H](CC(N)=O)C(=O)N[C@@H]([C@@H](C)O)C(=O)N[C@@H](C)C(=O)N[C@@H]([C@@H](C)O)C(=O)N1)[C@@H](C)O)C(=O)N1CCC[C@H]1C(=O)N[C@@H](CO)C(=O)N1CCC[C@H]1C(=O)N[C@H](C(=O)N1CCC[C@H]1C(=O)N[C@H](C(=O)NCC(=O)N[C@@H](CO)C(=O)N[C@@H](CC(N)=O)C(=O)N[C@H](C(=O)N[C@@H](Cc1ccc(O)cc1)C(N)=O)[C@@H](C)O)C(C)C)[C@@H](C)O [Example 54] (H-K([AEEA-γGlu-C20 diacid])CNTATCATQRLANFLRHSSPNFGAIPSPTPVGSNTY-NH2; disulfide 2-7; N-terminus assumed)
- Ratio hCT/hAmylin funct. [1]: 9.6
- Ratio hCT/hAmylin funct. [2]: 9.6
- Ratio hCT/hAmylin funct. [3]: 9.6
- Ratio hCT/hAmylin funct. [4]: 9.6

Compound: CC[C@H](C)[C@H](NC(=O)[C@H](C)NC(=O)CNC(=O)[C@H](Cc1ccccc1)NC(=O)[C@H](CC(N)=O)NC(=O)[C@@H]1CCCN1C(=O)[C@H](CO)NC(=O)[C@H](CO)NC(=O)[C@H](Cc1c[nH]cn1)NC(=O)[C@H](CCCNC(=N)N)NC(=O)[C@H](CC(C)C)NC(=O)[C@H](Cc1ccccc1)NC(=O)[C@H](CCC(=O)O)NC(=O)[C@H](C)NC(=O)[C@H](CC(C)C)NC(=O)[C@H](CCCNC(=N)N)NC(=O)[C@H](CCC(N)=O)NC(=O)[C@@H](NC(=O)[C@H](C)NC(=O)[C@@H]1CSSC[C@H](NC(=O)[C@@H](N)CCCCNC(=O)CC[C@H](NC(=O)CC[C@H](NC(=O)CCCCCCCCCCCCCCCCCCC(=O)O)C(=O)O)C(=O)O)C(=O)N[C@@H](CC(N)=O)C(=O)N[C@@H]([C@@H](C)O)C(=O)N[C@@H](C)C(=O)N[C@@H]([C@@H](C)O)C(=O)N1)[C@@H](C)O)C(=O)N1CCC[C@H]1C(=O)N[C@@H](CO)C(=O)N[C@@H](CO)C(=O)N[C@H](C(=O)N[C@@H](CC(N)=O)C(=O)N[C@H](C(=O)NCC(=O)N[C@@H](Cc1c[nH]cn1)C(=O)N[C@@H](CC(N)=O)C(=O)N[C@H](C(=O)N[C@@H](Cc1ccc(O)cc1)C(N)=O)[C@@H](C)O)C(C)C)[C@@H](C)O [Example 87] (H-K([γGlu-γGlu-C20 diacid])CNTATCATQRLAEFLRHSSPNFGAIPSSTNVGHNTY-NH2; disulfide 2-7)
- Ratio hCT/hAmylin funct. [1]: 3.8
- Ratio hCT/hAmylin funct. (Table 6i, hCTR funct. EC50 / hAmylin-R funct. EC50): 3.8
- Ratio hCT/hAmylin funct. [3]: 3.8

Compound: CC[C@H](C)[C@H](NC(=O)[C@H](C)NC(=O)CNC(=O)[C@H](Cc1ccccc1)NC(=O)[C@H](CC(N)=O)NC(=O)[C@@H]1CCCN1C(=O)[C@H](CO)NC(=O)[C@H](CO)NC(=O)[C@H](Cc1c[nH]cn1)NC(=O)[C@H](CCCNC(=N)N)NC(=O)[C@H](CC(C)C)NC(=O)[C@H](Cc1ccccc1)NC(=O)[C@H](C)NC(=O)[C@H](C)NC(=O)[C@H](CC(C)C)NC(=O)[C@H](CCCNC(=N)N)NC(=O)[C@H](CCC(N)=O)NC(=O)[C@@H](NC(=O)[C@H](C)NC(=O)[C@@H]1CSSC[C@H](NC(=O)[C@@H](N)CCCCNC(=O)CC[C@H](NC(=O)CCCCCCCCCCCCCCCCCCC(=O)O)C(=O)O)C(=O)N[C@@H](CC(N)=O)C(=O)N[C@@H]([C@@H](C)O)C(=O)N[C@@H](C)C(=O)N[C@@H]([C@@H](C)O)C(=O)N1)[C@@H](C)O)C(=O)N1CCC[C@H]1C(=O)N[C@@H](CO)C(=O)N[C@@H](CO)C(=O)N[C@H](C(=O)N[C@@H](CC(N)=O)C(=O)N[C@H](C(=O)NCC(=O)N1CCC[C@H]1C(=O)N[C@@H](CC(N)=O)C(=O)N[C@H](C(=O)N[C@@H](Cc1ccc(O)cc1)C(N)=O)[C@@H](C)O)C(C)C)[C@@H](C)O [Example 94] (H-K([γGlu-C20 diacid])CNTATCATQRLAAFLRHSSPNFGAIPSSTNVGPNTY-NH2; disulfide 2-7; N-terminus assumed)
- Ratio hCT/hAmylin funct. [1]: 4.5

Compound: CC[C@H](C)[C@H](NC(=O)[C@H](C)NC(=O)CNC(=O)[C@H](Cc1ccccc1)NC(=O)[C@H](CC(N)=O)NC(=O)[C@@H]1CCCN1C(=O)[C@H](CO)NC(=O)[C@H](CO)NC(=O)[C@H](Cc1c[nH]cn1)NC(=O)[C@H](CCCNC(=N)N)NC(=O)[C@H](CC(C)C)NC(=O)[C@H](Cc1ccccc1)NC(=O)[C@H](CC(N)=O)NC(=O)[C@H](C)NC(=O)[C@H](CC(C)C)NC(=O)[C@H](CCCNC(=N)N)NC(=O)[C@H](CCC(N)=O)NC(=O)[C@@H](NC(=O)[C@H](C)NC(=O)[C@@H]1CSSC[C@H](NC(=O)[C@@H](N)CCCCNC(=O)COCCOCCNC(=O)COCCOCCNC(=O)CC[C@H](NC(=O)CCCCCCCCCCCCCCCCCCC(=O)O)C(=O)O)C(=O)N[C@@H](CC(N)=O)C(=O)N[C@@H]([C@@H](C)O)C(=O)N[C@@H](C)C(=O)N[C@@H]([C@@H](C)O)C(=O)N1)[C@@H](C)O)C(=O)N1CCC[C@H]1C(=O)N[C@@H](CO)C(=O)N[C@@H](CO)C(=O)N[C@H](C(=O)N[C@@H](CC(N)=O)C(=O)N[C@H](C(=O)NCC(=O)N[C@@H](CCCNC(=N)N)C(=O)N[C@@H](CC(N)=O)C(=O)N[C@H](C(=O)N[C@@H](Cc1ccc(O)cc1)C(N)=O)[C@@H](C)O)C(C)C)[C@@H](C)O [Example 95] (H-K([AEEA-AEEA-γGlu-C20 diacid])CNTATCATQRLANFLRHSSPNFGAIPSSTNVGRNTY-NH2; disulfide 2-7 (inferred); N-terminus and C-terminus assumed)
- Ratio hCT/hAmylin funct. [1]: 33.0
- Ratio hCT/hAmylin funct. [2]: 33.0
- Ratio hCT/hAmylin funct. [3]: 33.0
- Ratio hCT/hAmylin funct. [4]: 33.0

Compound: CC[C@H](C)[C@H](NC(=O)[C@H](C)NC(=O)CNC(=O)[C@H](Cc1ccccc1)NC(=O)[C@H](CC(N)=O)NC(=O)[C@@H]1CCCN1C(=O)[C@H](CO)NC(=O)[C@H](CO)NC(=O)[C@H](Cc1c[nH]cn1)NC(=O)[C@H](CCCNC(=N)N)NC(=O)[C@H](CC(C)C)NC(=O)[C@H](Cc1ccccc1)NC(=O)[C@H](C)NC(=O)[C@H](C)NC(=O)[C@H](CC(C)C)NC(=O)[C@H](CCCNC(=N)N)NC(=O)[C@H](CCC(N)=O)NC(=O)[C@@H](NC(=O)[C@H](C)NC(=O)[C@@H]1CSSC[C@H](NC(=O)[C@H](CCCNC(=N)N)NC(=O)CNC(=O)CC[C@H](NC(=O)CCCCCCCCCCCCCCCCCCC(=O)O)C(=O)O)C(=O)N[C@@H](CC(N)=O)C(=O)N[C@@H]([C@@H](C)O)C(=O)N[C@@H](C)C(=O)N[C@@H]([C@@H](C)O)C(=O)N1)[C@@H](C)O)C(=O)N1CCC[C@H]1C(=O)N[C@@H](CO)C(=O)N[C@@H](CO)C(=O)N[C@H](C(=O)N[C@@H](CC(N)=O)C(=O)N[C@H](C(=O)NCC(=O)N[C@@H](Cc1c[nH]cn1)C(=O)N[C@@H](CC(N)=O)C(=O)N[C@H](C(=O)N[C@@H](Cc1ccc(O)cc1)C(N)=O)[C@@H](C)O)C(C)C)[C@@H](C)O [Example 101] ({C20 diacid-γGlu}-GRCNTATCATQRLAAFLRHSSPNFGAIPSSTNVGHNTY-NH2; disulfide 3-8 (inferred); C-terminus assumed)
- Ratio hCT/hAmylin funct. [1]: 4.9
